Earlier results as cited in US20210251946A1, “CANNABINOID-[…], FORMULATIONS, AND USES THEREOF FOR TREATING AMYOTROPHIC LATERAL SCLEROSIS” (GREEN RUSH SCIENCE, LLC, priority 2020, published 2021).

Legend:
ALS hSOD(G93A) mice [1] = conditions: intraperitoneally, beginning after onset of motor impairment and tremor (at 90 days old)
ALS hSOD(G93A) mice [2] = conditions: daily intraperitoneal administration, initiated after disease onset

Cc1c(C(=O)c2cccc3ccccc23)c2cccc3c2n1[C@H](CN1CCOCC1)CO3 [WIN 55,212-2]
disease progression (ALS hSOD(G93A) mice [1]): significant delay in disease progression

CN1CCCCC1Cn1cc(C(=O)c2cc([N+](=O)[O-])ccc2I)c2ccccc21 (stereo not drawn) [AM-1241]
increase of survival (ALS hSOD(G93A) mice [2]): 56%
motor impairment (ALS hSOD(G93A) mice [2]): delayed motor impairment
